# Method: In the present experiment, the number of immune cells was measured in co-administration of MB40100, which was expected to reduce the immune inhibition occurring with administration of cyclophosphamide.
# 24 hours and 48 hours after administration of cyclophosphamide (250 mg/kg), MB40100 was abdominally administered in mice at the different dosages (10 mg/kg, 20 mg/kg), respectively. After 7 days, the mice were killed to separate bone marrow cells and splenocytes, and then the number of these cells was counted pursuant to the tryphan blue exclusion method.
# Peripheral blood was rapidly gathered from the eyeball distal vein using a heparin-treated capillary glass tube and collected in a K3-EDTA-treated blood-gathering tube, then examined it with an automatic globule analyzer.
smiles,measurement,setting,value
O=P1(N(CCCl)CCCl)NCCCO1 (stereo not drawn) [cyclophosphamide],reduction of number of WBC compared with normal mouse,cyclophosphamide 250 mg/kg alone,about 30%
same,number of WBC in blood,"cyclophosphamide 250 mg/kg alone, normal mouse 7800",5300
same,number of splenocytes less than normal mouse,cyclophosphamide alone,about 72.8%
same,decrease of bone marrow cell density versus normal mouse,"cyclophosphamide alone, 7 days after",29.2%
same,bone marrow cell density,"cyclophosphamide alone, 7 days after, normal mouse 41.1×10^6",29.6×10^6 cells/ml
same,number of thrombocytes less than normal mouse,"cyclophosphamide alone, peripheral blood",about 56%
